Data taken from US20250074911A1, “MACROCYCLIC BTK INHIBITORS” (Crossfire Oncology Holding B.V., priority 2021, published 2025).

How the values were obtained:
[1] = system: wt-REC-1 mantle cell lymphoma cells; assay: Cell proliferation assay wt-REC-1 (ATPlite, 72 hours); format: cell-based; details: 72 h; read-out: IC50 wt-REC-1
Description: Results of the BTK […] binding affinity are shown in Table 1 below. • IC50 BTK […]: […] wt-REC-1 mantle cell lymphoma cells were purchased from American Type Culture Collection via Synthego Corporation (cat. no. CRL-3004, ATCC). […] Luminescence was recorded on an Envision multimode reader. The cell signal at the start of incubation was recorded separately in order to distinguish between cell population growth and cell death. In addition, maximum growth was determined by incubation of a duplicate without compound in the presence of 0.3% DMSO. Percentage growth was used as the main y-axis signal. IC50s were fitted by non-linear regression using IDBS XLfitTM5 using a 4-parameter logistic curve, yielding a maximum signal, minimum signal, hill-parameter and IC50. Results of the wt-REC-1 proliferation are shown in Table 1 below. • IC50 wt-REC-1: […]

REC-1 T474I cell lines = assay: Cell proliferation assay REC-1 BTK T474I knock-in cells (ATPlite, 72 hours); format: cell-based; details: Homo sapiens, Rec1; 72 hours; read-out: IC50 REC-1 T474I
Description: Cell proliferation assay Generation of BTK […] knock-in cell lines wt-REC-1 cell lines expressing mutant BTK were created at Synthego Corporation. Cell lines expressing BTK […] was generated via CRISPR/Cas9. Monoclonal REC-1 […] cell lines were obtained by single cell cloning. The mutation status of all cell lines was confirmed via sequencing. […] Luminescence was recorded on an Envision multimode reader. The cell signal at the start of incubation was recorded separately in order to distinguish between cell population growth and cell death. In addition, maximum growth was determined by incubation of a duplicate without compound in the presence of 0.3% DMSO. Percentage growth was used as the main y-axis signal.

[2] = system: wt-TMD8 diffuse large B-cell lymphoma cells; assay: Cell proliferation assay wt-TMD8 (ATPlite, 120 hours); format: cell-based; details: B-cell; wt-TMD8 cells, 120 hours, ATPlite; read-out: IC50 wt-TMD8
Description: Cell proliferation assay wt-TMD8 diffuse large B-cell lymphoma cells were purchased from Tokyo Medical and Dental University and cultured in RPMI-1640 cell culture medium (cat. no. 61870036, Life Technologies), supplemented with 10% (v/v) heat-inactivated fetal bovine calf serum and 1% penicillin/[…]. 1600 cells per well (in 45 μl) were seeded in a white 384-well culture plate (cat. no. 781080, Greiner Bio-One) and allowed to rest for at least 5 hours at 37° C., 95% humidity, and 5% CO2. 5 μl compound solution was added to the cells and incubation was continued for 120 hours (5 days), followed by addition of 24 μl ATPlite 1Step™ (PerkinElmer, Groningen, The Netherlands) solution was added to each well. Luminescence was recorded on an Envision multimode reader. The cell signal at the start of incubation was recorded separately in order to distinguish between cell population growth and cell death. In addition, maximum growth was determined by incubation of a duplicate without compound in the presence of 0.3% DMSO. Percentage growth was used as the main y-axis signal.

[3] = biological target: full-length wt-BTK enzyme (Homo sapiens (Human), UniProt Q06187); assay: Biochemical kinase assay wt-BTK (IMAP)
Sequence of full-length wt-BTK enzyme (Q06187 whole entry): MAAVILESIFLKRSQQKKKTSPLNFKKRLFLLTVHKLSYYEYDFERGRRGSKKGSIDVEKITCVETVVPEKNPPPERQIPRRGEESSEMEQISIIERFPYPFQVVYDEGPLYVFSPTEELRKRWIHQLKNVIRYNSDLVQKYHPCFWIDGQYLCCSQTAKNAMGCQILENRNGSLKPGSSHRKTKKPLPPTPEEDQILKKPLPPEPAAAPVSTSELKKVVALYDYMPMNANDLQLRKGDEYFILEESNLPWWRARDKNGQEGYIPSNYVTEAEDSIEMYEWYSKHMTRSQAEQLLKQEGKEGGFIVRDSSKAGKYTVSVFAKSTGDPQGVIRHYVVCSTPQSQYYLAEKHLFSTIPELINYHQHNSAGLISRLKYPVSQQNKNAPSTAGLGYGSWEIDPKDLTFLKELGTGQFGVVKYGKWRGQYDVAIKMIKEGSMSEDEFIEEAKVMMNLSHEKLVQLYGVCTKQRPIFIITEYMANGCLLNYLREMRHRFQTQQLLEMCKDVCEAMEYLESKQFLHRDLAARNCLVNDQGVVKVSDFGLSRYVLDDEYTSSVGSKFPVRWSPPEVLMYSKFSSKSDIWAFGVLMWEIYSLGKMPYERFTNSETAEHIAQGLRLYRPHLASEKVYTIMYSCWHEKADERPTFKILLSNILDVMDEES
Description: Biochemical kinase assay wt-BTK To determine the inhibitory activity of compounds on wt-BTK enzyme activity, the IMAP® assay (Molecular Devices) was used. […] After pre-incubation of 1 hour in the dark at room temperature, fluorescein-labeled MBP-derived substrate peptide (Molecular Devices, cat. no. RP 7123) was added, followed by ATP to start the reaction. Final enzyme concentration was 1.2 nM, final substrate concentration 50 nM, and final ATP concentration was 4 μM. The reaction was allowed to proceed for 2 hours at room temperature in the dark. The reaction was stopped by quenching with IMAP progressive binding solution according to the protocol of the manufacturer (Molecular Devices). Fluorescein polarization was measured on an Envision multimode reader (Perkin Elmer, Waltham, MA, U.S.A.). […] Results of the wt-BTK binding affinity are shown in Table 1 below. • IC50 wt-BTK: […]

[4] = biological target: full-length BTK C481S enzyme (Homo sapiens (Human), UniProt Q06187, C481S); assay: Biochemical kinase assay BTK C481S (IMAP)
Sequence of full-length BTK C481S enzyme (Q06187 whole entry C481S): as the sequence (Q06187 whole entry) above, with C481S counted along it
Description: Biochemical kinase assay BTK […] To determine the inhibitory activity of compounds on BTK C481S enzyme activity, the IMAP® assay (Molecular Devices) was used. […] After pre-incubation of 1 hour in the dark at room temperature, fluorescein-labeled MBP-derived substrate peptide (Molecular Devices, cat. no. RP 7123) was added, followed by ATP to start the reaction. Final enzyme concentration was 1.2 nM final substrate concentration 50 nM, and final ATP concentration was 7 μM. The reaction was allowed to proceed for 2 hours at room temperature in the dark. The reaction was stopped by quenching with IMAP progressive binding solution according to the protocol of the manufacturer (Molecular Devices). Fluorescein polarization was measured on an Envision multimode reader (Perkin Elmer, Waltham, MA, U.S.A.). IC50 were calculated using XLfitTM5 software (ID Business Solutions, Ltd., Surrey, U.K.). Results of the BTK […] binding affinity are shown in Table 1 below. • IC50 BTK […]: […]

SMILES	IC50 [1] [nM]	IC50 (REC-1 T474I cell lines) [nM]	IC50 [2] [nM]	IC50 [3] [nM]	IC50 [4] [nM]
CN1C/C=C/c2cnc(N)c3c(-c4ccc(C(=O)Nc5cc(C(F)(F)F)ccn5)cc4)nn(c23)[C@@H]2CCC[C@H](C2)C(=O)NCC1 [Example 3]	100 to 1000	500 to 10000	< 100	< 5	< 5
Nc1ncc2c3c1c(-c1ccc(C(=O)Nc4cc(C(F)(F)F)ccn4)cc1)nn3[C@@H]1CCC[C@H](C1)C(=O)NCC/C=C/2 [Example 4]	100 to 1000	500 to 10000	100 to 1000	5 to 50	5 to 50
CN1CC/C=C/c2cnc(N)c3c(-c4ccc(C(=O)Nc5cc(C(F)(F)F)ccn5)cc4)nn(c23)[C@@H]2CCC[C@H](C2)C(=O)NCC1 [Example 5]	< 100	100 to 500	< 100	< 5	< 5
Nc1ncc2c3c1c(-c1ccc(C(=O)Nc4cc(C(F)(F)F)ccn4)cc1)nn3[C@@H]1CCC[C@H](C1)NC(=O)CCCC[C@@H](O)/C=C/2 [Example 12]	< 100	500 to 10000	< 100	< 5	< 5
Nc1ncc2c3c1c(-c1ccc(C(=O)Nc4cc(C(F)(F)F)ccn4)cc1)nn3[C@@H]1CCC[C@H](C1)NC(=O)CCC[C@H](O)/C=C/2 [Example 13]	100 to 1000	500 to 10000	< 100	< 5	< 5
Nc1ncc2c3c1c(-c1ccc(C(=O)Nc4cc(C(F)(F)F)ccn4)cc1)nn3[C@@H]1CCC[C@H](C1)NC(=O)CCC[C@@H](O)/C=C/2 [Example 14]	100 to 1000	500 to 10000	< 100	< 5	< 5
Nc1ncc2c3c1c(-c1ccc(C(=O)Nc4cc(C(F)(F)F)ccn4)cc1)nn3[C@@H]1CCC[C@H](C1)NC(=O)CCCCCC/C=C/2 [Example 16]	< 100	< 100	< 100	< 5	< 5
Nc1ncc2c3c1c(-c1ccc(C(=O)Nc4ccccn4)cc1)nn3[C@@H]1CCC[C@H](C1)NC(=O)CCCC/C=C/2 [Example 23]	< 100	100 to 500	< 100	< 5	< 5
Nc1ncc2c3c1c(-c1ccc(C(=O)Nc4ccccn4)cc1)nn3[C@@H]1CCC[C@H](C1)NC(=O)CCCCCC/C=C/2 [Example 29]	< 100	100 to 500	< 100	< 5	< 5
CN1CC/C=C/c2cnc(N)c3c(-c4ccc(C(=O)Nc5cc(C(F)(F)F)ccn5)cc4)nn(c23)[C@@H]2CCC[C@H](C2)NC(=O)C1 [Example 30]	< 100	100 to 500	< 100	< 5	< 5
Nc1ncc2c3c1c(-c1ccc(C(=O)Nc4cc(C(F)(F)F)ccn4)cc1)nn3[C@@H]1CCC[C@H](C1)NC(=O)CNCCC/C=C/2 [Example 31]	< 100	< 100	< 100	< 5	< 5
Nc1ncc2c3c1c(-c1ccc(C(=O)Nc4cc(C(F)(F)F)ccn4)cc1)nn3[C@@H]1CCC[C@H](C1)NC(=O)CNCC/C=C/2 [Example 32]	< 100	100 to 500	< 100	< 5	< 5
